Like-named read-outs stand apart in the source and are kept apart here. Where a SMILES comes first, the peptide text is derived from it. The star is where a group is joined. AMC = Cc1cc(=O)oc2cc(N*)ccc12; Tos = Cc1ccc(S(=O)(=O)*)cc1; Cbz = O=C(OCc1ccccc1)*; Boc = CC(C)(C)OC(=O)*
Legend:
[1] = molecular target: T1, FhCL2 (Fasciola hepatica, UniProt Q7JNQ8); experiment: Hydrolysis of fluorogenic peptidyl-NHMec substrates by recombinant FhCL2; assay type: biochemical; details: FhCL2 compared to FhCL1
Experimental: (§1) Initial rates were obtained at 37°C over a range of substrate concentrations spanning Km values (0.2–200 µM) and at fixed enzyme concentrations (0.5–5 nM). Assays were performed in 100 mM sodium phosphate buffer (pH 6.0) containing 1 mM DTT and 1 mM EDTA. Rate constants for the inactivation of the Fasciola enzymes by Z-Phe-Ala-CHN2 and cathepsin K inhibitor II were determined from progress curves in the presence of substrate as previously described.

[2] = molecular target: T2, FhCL3 (Fasciola hepatica, UniProt B3TM67); experiment: Hydrolysis of fluorogenic peptidyl-NHMec substrates by recombinant FhCL3; assay type: biochemical; details: for kcat/Km fold increase over FhCL1 / kcat/Km fold lower than FhCL1: FhCL3 compared to FhCL1; for fold better cleavage efficiency of FhCL3 than FhCL2: FhCL3 compared to FhCL2
Experimental: as §1

[3] = molecular target: T3, FhCL1 (Fasciola hepatica, UniProt Q7JNQ9); experiment: Inactivation of recombinant FhCL1 by inhibitors (progress curves in presence of substrate); assay type: biochemical; details: for Ki: FhCL1
T3 construct: His tag (inferred from Ni-NTA purification) (C); made in house; host or cells: Pichia pastoris
Experimental: as §1

[4] = molecular target: T1, FhCL2; experiment: Inactivation of recombinant FhCL2 by inhibitors (progress curves in presence of substrate); assay type: biochemical
Experimental: as §1

[5] = molecular target: T2, FhCL3; experiment: Inactivation of recombinant FhCL3 by inhibitors (progress curves in presence of substrate); assay type: biochemical
Experimental: as §1

[6] = test system: Cc1cc(=O)oc2cc(NC(=O)[C@H](CCCCN)NC(=O)[C@H](CC(C)C)NC(=O)[C@@H](NC(=O)OC(C)(C)C)C(C)C)ccc12; experiment: Hydrolysis of fluorogenic peptidyl-NHMec substrates by recombinant FhCL1; assay type: biochemical, Fasciola hepatica; details: other: FhCL1, pH 6.0, 37°C
Experimental: as §1

[7] = test system: Cc1cc(=O)oc2cc(NC(=O)[C@H](CCCNC(=N)N)NC(=O)[C@@H](NC(=O)[C@@H](NC(=O)OCc3ccccc3)C(C)C)C(C)C)ccc12; experiment: as above; assay type: biochemical, Fasciola hepatica; details: other: FhCL1, pH 6.0, 37°C
Experimental: as §1

[8] = test system: Cc1cc(=O)oc2cc(NC(=O)[C@H](CCCNC(=N)N)NC(=O)[C@@H]3CCCN3C(=O)CNC(=O)[C@H](C)NC(=O)OC(C)(C)C)ccc12; experiment: as above; assay type: biochemical, Fasciola hepatica; details: other: FhCL1, pH 6.0, 37°C
Experimental: as §1

[9] = test system: Cc1cc(=O)oc2cc(NC(=O)[C@H](CCCNC(=N)N)NC(=O)[C@@H]3CCCN3C(=O)[C@@H](NC(=O)OC(C)(C)C)C(C)C)ccc12; experiment: as above; assay type: biochemical, Fasciola hepatica; details: other: FhCL1, pH 6.0, 37°C
Experimental: as §1

[10] = test system: Cc1cc(=O)oc2cc(NC(=O)[C@H](CCCNC(=N)N)NC(=O)[C@H](CC(C)C)NC(=O)OCc3ccccc3)ccc12; experiment: as above; assay type: biochemical, Fasciola hepatica; details: other: FhCL1, pH 6.0, 37°C
Experimental: as §1

[11] = test system: Cc1cc(=O)oc2cc(NC(=O)[C@H](CCCNC(=N)N)NC(=O)[C@H](Cc3ccccc3)NC(=O)OCc3ccccc3)ccc12; experiment: as above; assay type: biochemical, Fasciola hepatica; details: other: FhCL1, pH 6.0, 37°C
Experimental: as §1

[12] = test system: Cc1ccc(S(=O)(=O)NCC(=O)N2CCC[C@H]2C(=O)N[C@@H](CCCCN)C(=O)Nc2ccc3c(C)cc(=O)oc3c2)cc1; experiment: as above; assay type: biochemical, Fasciola hepatica; details: other: FhCL1, pH 6.0, 37°C
Experimental: as §1

[13] = test system: Cc1ccc(S(=O)(=O)NCC(=O)N2CCC[C@H]2C(=O)N[C@@H](CCCNC(=N)N)C(=O)Nc2ccc3c(C)cc(=O)oc3c2)cc1; experiment: as above; assay type: biochemical, Fasciola hepatica; details: other: FhCL1, pH 6.0, 37°C
Experimental: as §1

T1 sequence (Q7JNQ8 entry or part of it): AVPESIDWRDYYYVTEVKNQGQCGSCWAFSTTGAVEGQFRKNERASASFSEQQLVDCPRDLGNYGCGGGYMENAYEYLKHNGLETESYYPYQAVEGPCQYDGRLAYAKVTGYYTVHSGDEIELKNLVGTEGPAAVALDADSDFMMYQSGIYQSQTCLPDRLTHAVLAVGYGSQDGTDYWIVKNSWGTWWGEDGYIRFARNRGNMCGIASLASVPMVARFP
T2 sequence (B3TM67 entry or part of it): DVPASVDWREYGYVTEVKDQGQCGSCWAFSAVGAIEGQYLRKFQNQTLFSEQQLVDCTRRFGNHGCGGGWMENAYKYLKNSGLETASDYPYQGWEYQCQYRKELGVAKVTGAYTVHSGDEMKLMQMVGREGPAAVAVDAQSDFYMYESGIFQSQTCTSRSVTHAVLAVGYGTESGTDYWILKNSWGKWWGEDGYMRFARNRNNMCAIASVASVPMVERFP
T3 sequence (Q7JNQ9 entry or part of it): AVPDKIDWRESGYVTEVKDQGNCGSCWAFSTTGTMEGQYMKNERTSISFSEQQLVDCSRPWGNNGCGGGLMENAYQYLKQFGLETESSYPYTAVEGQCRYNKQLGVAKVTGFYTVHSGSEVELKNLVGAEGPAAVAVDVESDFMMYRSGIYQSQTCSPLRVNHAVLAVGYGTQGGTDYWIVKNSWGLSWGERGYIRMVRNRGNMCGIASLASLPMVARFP

Compound: Cc1cc(=O)oc2cc(NC(=O)[C@H](CCCN=C(N)N)NC(=O)[C@@H]3CCCN3C(=O)CNC(=O)[C@H](C)NC(=O)OC(C)(C)C)ccc12 [Boc-AGPR-NHMec, Boc-Ala-Gly-Pro-Arg-NHMec] (Boc-AGPR-{AMC})
- kcat/Km fold increase over FhCL1 [1]: 86 fold
- kcat/Km fold increase over FhCL1 [2]: 90 fold

Compound: Cc1cc(=O)oc2cc(NC(=O)[C@H](CCCN=C(N)N)NC(=O)[C@@H]3CCCN3C(=O)[C@@H](NC(=O)OC(C)(C)C)C(C)C)ccc12 [Boc-VPR-NHMec, Boc-Val-Pro-Arg-NHMec] (Boc-Val-Pro-Arg-{AMC})
- kcat/Km fold increase over FhCL1 [1]: 44 fold
- kcat/Km fold increase over FhCL1 [2]: 3 fold

Compound: CC(C)C[C@H](NC(=O)OCc1ccccc1)C(=O)NNC(=O)NNC(=O)[C@H](CC(C)C)NC(=O)[C@H](Cc1ccccc1)NC(=O)OC(C)(C)C [Cathepsin K inhibitor II, Z-LNHNHCONHNHLF-Boc]
- Ki ([3]; Ki(app)): 12.2 nM
- Ki ([3]; Ki): 0.63 nM
- Ki [4]: 0.46 nM
- Ki ([4]; read-out: Ki(app)): 4.8 nM
- fold less effective against FhCL3 compared to FhCL1 ([5]; FhCL3 vs FhCL1): 14 fold
- fold less effective against FhCL3 compared to FhCL2 ([5]; FhCL3 vs FhCL2): 20 fold

Compound: Cc1ccc(S(=O)(=O)NCC(=O)N2CCC[C@H]2C(=O)N[C@@H](CCCCN)C(=O)Nc2ccc3c(C)cc(=O)oc3c2)cc1 [Tos-GPK-NHMec, Tos-Gly-Pro-Lys-NHMec] (Tos-Gly-Pro-Lys-{AMC})
- kcat/Km fold increase over FhCL1 [1]: 22 fold
- kcat/Km fold increase over FhCL1 [2]: 60 fold
- fold better cleavage efficiency of FhCL3 than FhCL2 [2]: 3 fold

Compound: Cc1ccc(S(=O)(=O)NCC(=O)N2CCC[C@H]2C(=O)N[C@@H](CCCN=C(N)N)C(=O)Nc2ccc3c(C)cc(=O)oc3c2)cc1 [Tos-GPR-NHMec, Tos-Gly-Pro-Arg-NHMec] (Tos-Gly-Pro-Arg-{AMC})
- kcat/Km fold increase over FhCL1 [1]: 28 fold
- kcat/Km fold increase over FhCL1 [2]: 142 fold
- fold better cleavage efficiency of FhCL3 than FhCL2 [2]: 5 fold

Compound: Cc1cc(=O)oc2cc(NC(=O)[C@H](CCCN=C(N)N)NC(=O)[C@H](Cc3ccccc3)NC(=O)OCc3ccccc3)ccc12 [Z-FR-NHMec, Z-Phe-Arg-NHMec] (Cbz-Phe-Arg-{AMC})
- kcat/Km fold lower than FhCL1 [1]: 6 fold
- kcat/Km fold lower than FhCL1 [2]: 65 fold

Compound: Cc1cc(=O)oc2cc(NC(=O)[C@H](CCCN=C(N)N)NC(=O)[C@H](CC(C)C)NC(=O)OCc3ccccc3)ccc12 [Z-LR-NHMec, Z-Leu-Arg-NHMec]
- kcat/Km fold lower than FhCL1 [1]: 3.5 fold
- kcat/Km fold lower than FhCL1 [2]: 66 fold

Compound: C[C@H](NC(=O)[C@H](Cc1ccccc1)NC(=O)OCc1ccccc1)C(=O)C=[N+]=[N-] [Z-Phe-Ala-CHN2]
- rate of inactivation of FhCL1, fold higher than that of FhCL2 ([3]; FhCL1 compared to FhCL2): ~2 fold
- Ki ([3]; Ki(app)): 31.4 nM
- Ki ([3]; Ki): 1.62 nM
- Ki [4]: 5.32 nM
- Ki ([4]; read-out: Ki(app)): 55.2 nM
- rate of inactivation of FhCL3, fold lower ([5]; FhCL3 in contrast to FhCL1 and FhCL2): 20 fold

Compound: FhCL1 (Fasciola hepatica)
- Km [6]: 2.5 µM
- kcat [6]: 0.14 s⁻¹
- kcat/Km [6]: 54300 M⁻¹ s⁻¹
- Km [7]: 2.84 µM
- kcat [7]: 0.021 s⁻¹
- kcat/Km [7]: 7460 M⁻¹ s⁻¹
- Km [8]: 18.8 µM
- kcat [8]: 0.01 s⁻¹
- kcat/Km [8]: 674 M⁻¹ s⁻¹
- Km [9]: 22 µM
- kcat [9]: 0.01 s⁻¹
- kcat/Km [9]: 479 M⁻¹ s⁻¹
- Km [10]: 1.09 µM
- kcat [10]: 1.63 s⁻¹
- kcat/Km [10]: 1.49e+06 M⁻¹ s⁻¹
- Km [11]: 1.9 µM
- kcat [11]: 0.12 s⁻¹
- kcat/Km [11]: 64900 M⁻¹ s⁻¹
- Km [12]: 17.42 µM
- kcat [12]: 0.01 s⁻¹
- kcat/Km [12]: 612 M⁻¹ s⁻¹
- Km [13]: 27.2 µM
- kcat [13]: 0.02 s⁻¹
- kcat/Km [13]: 672 M⁻¹ s⁻¹

— paper PMC3071364, “Collagenolytic Activities of the Major Secreted Cathepsin L Peptidases Involved in the Virulence of the Helminth Pathogen, Fasciola hepatica” (PLoS Neglected Tropical Diseases, 2011)
